Assay results from US20240299595A1, “CANCER THERANOSTIC COMPOSITIONS COMPRISING BIGUANIDE COMPLEXES OF GROUP 7 TRANSITION METALS AND USES THEREOF” (BOARD OF REGENTS, THE UNIVERSITY OF TEXAS SYSTEM, priority 2021, published 2024).

Tested on: SKOV3
Test: MTT cytotoxicity, ovarian cancer cell line SKOV3
Type: cell-based, human
Procedure: Finally, a comparison study of the cytotoxicity of Re-Phen and phenformin in a panel of ovarian cancer cell lines by MTT assay after a 72 hour incubation period was conducted. Ovarian cells were seeded at 5000 cells/well in 96-well plates overnight, and treated with Re-Phen or phenformin in different concentrations (from 4.57×10^−4 mM to 1.0 mM in 3-fold increase) at 37° C. for 72 hours. Cell viability was measured using the MTT assay. The absorption at 590 nm was measured at microplate reader (SpectraMax, Molecular Device, San Diego, CA) to quantify cell numbers. The proportion of cells was normalized to that of untreated cells and expressed as mean±standard error of the mean (SEM) (n=5-6). The resulting reduced viability with half-maximal inhibitory concentration (IC50) values of mM were calculated by a sigmoidal dose-response (variable slope) curve-fitting using GraphPad Prism software. The data are shown in FIG. 19A (Re-Phen) and FIG. 19B (phenformin). […] In fact, Re-Phen is shown to display >2,000-fold and >5,000-fold higher cytotoxicity against OVACAR-8 and SKOV3 (Table 2) human ovarian cancer cell lines, respectively.

N=C(N)NC(=N)NCCc1ccccc1.[C-]#[O+].[C-]#[O+].[C-]#[O+].[Re+] [Re-Phen]
IC50 (MTT, 72 hours): 35 µM
fold higher cytotoxicity against SKOV3 (Re-Phen versus phenformin, Table 2): > 5,000 fold
